Among the data in patent US10059697B2, “Compounds and combinations for the treatment of HIV” (priority 2015, dated 2018) are fold induction values, retold here.

Like-named read-outs stand apart in the source and are kept apart here.

The assay relates to HIV-1 expression in latently infected resting CD4 T cells from HIV-1 Infected Subjects on cART. Briefly: microbe, parasite or virus in culture. Format: cell-based. Particulars: Human immunodeficiency virus 1, CD4+ T; for fold induction at 0.015 µM: 24 h; for fold induction at 0.3 µM: 0.25 h, read-out: Fold HIV Activation, Geometric Mean, 0.3 μM Carfilzomib, 15 min pulse; for fold induction at 0.04 µM: 4 h, read-out: Fold HIV Activation, Geometric Mean, 40 nM Romidepsin, 4 h pulse. On the procedure:
The leukapheresis product was diluted with PBS and layered over Ficoll for isolation of PBMCs. PBMCs were treated with red blood cell lysis buffer and rested overnight (10 million cells/ml) in tissue culture medium (RPMI 1640 supplemented with 10% FBS and Pen/Strep) before the isolation of resting (CD69-CD25-HLA-DR-) CD4 T cells according to the manufacturer's instructions (EasySep Human CD4 T cell Enrichment Kit modified to also deplete CD69+, CD25+, or HLA-DR+ cells). Resting CD4 T cells were cultured in four replicate wells per condition with the indicated compounds or with dimethyl sulfoxide (DMSO, vehicle control) for 6 days. To assess latency reversal that occurs in response to mitogenic activation of T cells, cells were incubated with 50 ng/ml phorbol 12-myristate 13-acetate (PMA) and 500 ng/ml ionomycin. Unless otherwise indicated, continuous exposure was used. Where pulses are indicated, at the end of the pulse, cells were spun three times at 500×g for 5 min, supernatant was decanted and replaced with an equal volume of fresh media. When in combination with another compound that was not pulsed, the compound with continuous exposure was added back at the indicated concentration. The cultures were maintained in the presence of antivirals (elvitegravir and efavirenz at 100 nM each) to prevent viral spread and amplification in order to measure the quantity of virions produced (latency reversal) by the indicated compounds. At the end of the incubation period, cell-free culture supernatants were harvested and HIV-1 RNA levels were quantified by the COBAS® AmpliPrep/COBAS® TaqMan HIV-1 Test, v2.0 (Roche). Romidepsin was used as a control. Romidepsin is a HDAC inhibitor with HIV latency reversal activity (PLoS pathogens (2015), 11(9), e1005142). The combination of a phorbol ester (PMA) and a calcium ionophore (ionomycin) was also used as a mitogenic control that has strong HIV latency reversal activity. As this combination induces global T cell proliferation and activation, systemic administration would likely induce significant toxicity. As such, PMA and ionomycin are useful strictly as a tool to monitor the amount of virus that can be produced in response to a strongly activating stimuli.

Consider `CC(C)C[C@H](NC(=O)[C@H](Cc1ccccc1)NC(=O)c1cnccn1)B(O)O` [Bortezomib, bortezomib, reference compound], for which the fold induction at 0.015 µM reads like this: (read-out: Fold HIV Activation, 15 nM bortezomib, 24 hr pulse, individual subjects, Table 8) 3.47; (read-out: Fold HIV Activation, 15 nM bortezomib, 24 hr pulse, individual subjects, Table 9) 3.47; (read-out: Fold HIV Activation, Geometric Mean, 15 nM Bortezomib 24 h pulse, geometric mean of subjects, Table 5 (n = 10)) 1.36; (read-out: Fold HIV Activation, Geometric Mean, 15 nM bortezomib, 24 hr pulse, geometric mean of subjects, Table 8 (n = 2)) 3.64; (read-out: Fold HIV Activation, Geometric Mean, 15 nM bortezomib, 24 hr pulse, geometric mean of subjects, Table 9 (n = 2)) 3.64; (read-out: Fold HIV Activation, Geometric Mean, 15 nM bortezomib, 24 hr pulse, geometric mean of subjects, Table 10 (n = 3)) 2.23.
On to `CC(C)C[C@H](NC(=O)[C@H](CCc1ccccc1)NC(=O)CN1CCOCC1)C(=O)N[C@@H](Cc1ccccc1)C(=O)N[C@@H](CC(C)C)C(=O)[C@@]1(C)CO1` [Carfilzomib, carfilzomib, reference compound], for which the fold induction at 0.3 µM reads like this: (geometric mean of subjects, Table 6 (n = 9)) 1.04; (geometric mean of subjects, Table 11 (n = 3)) 0.94; (geometric mean of subjects, Table 12 (n = 3)) 0.94.
`N#Cc1ncn(CC(=O)Nc2ccc3oc4ccccc4c3c2)n1` [Compound 1]: the fold induction at 1 µM (read-out: Fold HIV Activation, Geometric Mean, 1 μM Compound 1, geometric mean of subjects, Table 1 (n = 10)) was determined as 1.03. For the same compound, the fold induction at 3 µM came out at 2.94 (read-out: Fold HIV Activation, Geometric Mean, 3 μM Compound 1, geometric mean of subjects, Table 1 (n = 10)); 3.12 (read-out: Fold HIV Activation, Geometric Mean, 3 μM Compound 1, geometric mean of subjects, Table 5 (n = 10)); 3.53 (read-out: Fold HIV Activation, Geometric Mean, 3 μM Compound 1, geometric mean of subjects, Table 6 (n = 9)); 5.92 (read-out: Fold HIV Activation, Geometric Mean, 3 μM Compound 1, geometric mean of subjects, Table 7 (n = 7)). Moreover, the fold induction at 6 µM (read-out: Fold HIV Activation, Geometric Mean, 6 μM Compound 1, geometric mean of subjects, Table 1 (n = 10)) worked out at 6.32.
As to `COc1cc2c(cc1NC(=O)Cn1cnc(C#N)n1)oc1ccccc12` [Compound 2], the fold induction at 1 µM (144 h, read-out: Fold HIV Activation, 1 μM Compound 2, 6 days, individual subjects, Table 2) worked out at 1.04 and the fold induction at 1 µM (read-out: Fold HIV Activation, Geometric Mean, 1 μM Compound 2, geometric mean of subjects, Table 2 (n = 8)) was found to be 1.09. The fold induction at 6 µM was found to be 4.41 (144 h, read-out: Fold HIV Activation, 6 μM Compound 2, 6 days, individual subjects, Table 2) and 3.56 (read-out: Fold HIV Activation, Geometric Mean, 6 μM Compound 2, geometric mean of subjects, Table 2 (n = 8)). The fold induction at 3 µM (read-out: Fold HIV Activation, 3 μM Compound 2, individual subjects, Table 8) turned out to be 3.42; the fold induction at 3 µM (read-out: Fold HIV Activation, Geometric Mean, 3 μM Compound 2, geometric mean of subjects, Table 2 (n = 8)) came to 2.76; the fold induction at 3 µM (read-out: Fold HIV Activation, Geometric Mean, 3 μM Compound 2, geometric mean of subjects, Table 8 (n = 2)) stood at 2.46; the fold induction at 3 µM (read-out: Fold HIV Activation, Geometric Mean, 3 μM Compound 2, geometric mean of subjects, Table 11 (n = 3)) came to 2.75.
For `N#Cc1ncn(CC(=O)Nc2ccc3c(c2)C(=O)c2ccccc2-3)n1` [Compound 3, 2-(3-cyano-1H-1,2,4-triazol-1-yl)-N-(9-oxo-9H-fluoren-2-yl)acetamide], the fold induction at 6 µM runs as follows: (144 h, read-out: Fold HIV Activation, 6 μM Compound 3, 6 days, individual subjects, Table 3) 3.75; (read-out: Fold HIV Activation, Geometric Mean, 6 μM Compound 3, geometric mean of subjects, Table 3 (n = 8)) 2.61. Moreover, under “read-out: Fold HIV Activation, Geometric Mean, 1 μM Compound 3, geometric mean of subjects, Table 3 (n = 8)”, the fold induction at 1 µM came to 1.62. The fold induction at 3 µM reads like this: (read-out: Fold HIV Activation, Geometric Mean, 3 μM Compound 3, geometric mean of subjects, Table 3 (n = 8)) 2.31; (read-out: Fold HIV Activation, Geometric Mean, 3 μM Compound 3, geometric mean of subjects, Table 9 (n = 2)) 1.99; (read-out: Fold HIV Activation, Geometric Mean, 3 μM Compound 3, geometric mean of subjects, Table 12 (n = 3)) 2.59.
As for `C#CCOc1cc2c(cc1NC(=O)Cn1cnc(C#N)n1)oc1ccccc12` [Compound 4, 2-(3-cyano-1H-1,2,4-triazol-1-yl)-N-(2-(prop-2-yn-1-yloxy)dibenzo[b,d]furan-3-yl)acetamide], the fold induction at 1 µM runs as follows: (144 h, read-out: Fold HIV Activation, 1 μM Compound 4, 6 days, individual subjects, Table 4) 1.09; (read-out: Fold HIV Activation, Geometric Mean, 1 μM Compound 4, geometric mean of subjects, Table 4 (n = 5)) 1.09. Besides, the fold induction at 6 µM runs as follows: (144 h, read-out: Fold HIV Activation, 6 μM Compound 4, 6 days, individual subjects, Table 4) 3.03; (read-out: Fold HIV Activation, Geometric Mean, 6 μM Compound 4, geometric mean of subjects, Table 4 (n = 5)) 3.97. Besides, the fold induction at 3 µM is, setting by setting: (read-out: Fold HIV Activation, Geometric Mean, 3 μM Compound 4, geometric mean of subjects, Table 4 (n = 5)) 3.54; (read-out: Fold HIV Activation, Geometric Mean, 3 μM Compound 4, geometric mean of subjects, Table 10 (n = 3)) 3.54.
Regarding `COC[C@H](NC(=O)c1cnc(C)s1)C(=O)N[C@@H](COC)C(=O)N[C@@H](Cc1ccccc1)C(=O)[C@@]1(C)CO1` [Oprozomib, oprozomib, reference compound], the fold induction at 0.1 µM (1 h, read-out: Fold HIV Activation, Geometric Mean, 100 nM Oprozomib, 1 hr pulse, geometric mean of subjects, Table 7 (n = 7)) is 2.37.
As to `C/C=C1\NC(=O)[C@H]2CSSCC/C=C/[C@H](CC(=O)N[C@H](C(C)C)C(=O)N2)OC(=O)[C@H](C(C)C)NC1=O` [Romidepsin, reference compound], the fold induction at 0.04 µM runs as follows: (geometric mean of subjects, Table 1 (n = 10)) 2.73; (geometric mean of subjects, Table 2 (n = 8)) 3.16; (geometric mean of subjects, Table 3 (n = 8)) 3.16; (geometric mean of subjects, Table 4 (n = 5)) 2.33.
